Assay results: ChEMBL document CHEMBL1201862, “PubChem BioAssay data set” (2004)
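Briefly, cells in 96-well plates were exposed to five compound concentrations for 48 h, and endpoints were estimated by linear interpolation. At the GI50, growth is halved.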 The source made the active and inactive calls. Rule as the data show it: active = GI50 up to about 1.1 µM and inactive = higher.

Experiments:
Test in all cases: growth of human tumour cells (NCI), 48 h
EKVX = test system: EKVX
UACC-62 = test system: UACC-62
HT-29 = test system: HT-29
Malme-3M = test system: Malme-3M
OVCAR-5 = test system: OVCAR-5
OVCAR-8 = test system: OVCAR-8
SN12C = test system: SN12C
NCI-H460 = test system: NCI-H460
SK-MEL-5 = test system: SK-MEL-5
A549 = test system: A549
NCI-H522 = test system: NCI-H522
SK-MEL-2 = test system: SK-MEL-2
CCRF-CEM = test system: CCRF-CEM
SNB-19 = test system: SNB-19
COLO 205 = test system: COLO 205
HCT-116 = test system: HCT-116

Measured: GI50

C/C=C/CC(C)[C@@H](O)[C@H](NC)C(=O)O (some centres undefined)
inactive: EKVX > 100 µM | UACC-62 > 100 µM | HT-29 > 100 µM | Malme-3M > 100 µM | OVCAR-5 > 100 µM | OVCAR-8 > 100 µM | SN12C > 100 µM | NCI-H460 > 100 µM | SK-MEL-5 > 100 µM | A549 > 100 µM | NCI-H522 > 100 µM | SK-MEL-2 > 100 µM | CCRF-CEM > 100 µM | SNB-19 > 100 µM | COLO 205 > 100 µM

O=C(/C=C\c1ccc(/C=C/C(=O)Nc2cccc(C3=NCCCN3)c2)cc1)Nc1cccc(C2=NCCCN2)c1
inactive: HT-29 > 100 µM | Malme-3M > 100 µM | OVCAR-5 > 100 µM | OVCAR-8 > 100 µM | SN12C > 100 µM | NCI-H460 > 100 µM | SK-MEL-5 30.8 µM | A549 > 100 µM | NCI-H522 42.8 µM | SK-MEL-2 > 62.8 µM | CCRF-CEM > 100 µM | SNB-19 > 100 µM | COLO 205 4.06 µM | HCT-116 > 100 µM

Sc1nnc(COc2ccc(Cl)cc2Cl)[nH]1
inactive: EKVX > 100 µM | UACC-62 > 100 µM | HT-29 > 100 µM | Malme-3M > 100 µM | OVCAR-5 > 100 µM | OVCAR-8 > 100 µM | SN12C > 100 µM | NCI-H460 > 100 µM | SK-MEL-5 > 100 µM | A549 > 100 µM | SK-MEL-2 > 100 µM | CCRF-CEM > 100 µM | SNB-19 > 100 µM | HCT-116 > 100 µM

Cc1cc2c(cc1C)[n+]([O-])c(C(=O)/C=C/c1ccccc1Cl)c(C)[n+]2[O-]
inactive: EKVX 49.2 µM | UACC-62 18.3 µM | HT-29 34.8 µM | Malme-3M 31.8 µM | OVCAR-5 34.4 µM | OVCAR-8 26.1 µM | SN12C 33 µM | NCI-H460 26.2 µM | SK-MEL-5 24.4 µM | A549 33.9 µM | NCI-H522 12.7 µM | SK-MEL-2 27.5 µM | CCRF-CEM 37.2 µM | SNB-19 43.2 µM | COLO 205 20.7 µM

Nc1c(Cl)ncnc1NCCCNc1ncnc(Cl)c1N
inactive: EKVX > 100 µM | UACC-62 > 100 µM | HT-29 > 100 µM | OVCAR-5 > 100 µM | OVCAR-8 > 100 µM | SN12C > 100 µM | NCI-H460 > 100 µM | SK-MEL-5 > 100 µM | A549 > 100 µM | NCI-H522 69.3 µM | SK-MEL-2 > 100 µM | CCRF-CEM > 100 µM | SNB-19 > 100 µM | COLO 205 > 100 µM | HCT-116 > 100 µM

O=C(N/C(=C\c1ccc([N+](=O)[O-])cc1)c1nc2ccccc2[nH]1)c1ccccc1
inactive: EKVX > 100 µM | UACC-62 > 100 µM | HT-29 95.7 µM | Malme-3M > 100 µM | OVCAR-5 > 100 µM | OVCAR-8 > 100 µM | SN12C > 100 µM | NCI-H460 > 100 µM | SK-MEL-5 86.9 µM | A549 93.5 µM | NCI-H522 64.7 µM | SK-MEL-2 > 100 µM | SNB-19 > 100 µM | COLO 205 > 100 µM | HCT-116 72.4 µM

O=S1(=O)OCCOS(=O)(=O)C1Br
inactive: UACC-62 52.2 µM | HT-29 > 100 µM | Malme-3M > 100 µM | OVCAR-8 > 100 µM | SN12C > 100 µM | SK-MEL-5 > 100 µM | A549 > 100 µM | NCI-H522 > 100 µM | SK-MEL-2 > 100 µM | CCRF-CEM > 100 µM | SNB-19 64.9 µM | COLO 205 > 100 µM | HCT-116 > 100 µM

NC(=S)Nc1nnc(-c2ccc(-c3nnc(NC(N)=S)o3)cc2)o1
inactive: EKVX > 100 µM | UACC-62 > 100 µM | HT-29 > 100 µM | Malme-3M > 100 µM | OVCAR-5 > 100 µM | OVCAR-8 > 100 µM | SN12C > 100 µM | NCI-H460 > 100 µM | SK-MEL-5 > 100 µM | A549 > 100 µM | NCI-H522 > 100 µM | SK-MEL-2 > 100 µM | CCRF-CEM > 100 µM | SNB-19 > 100 µM | COLO 205 > 100 µM | HCT-116 > 100 µM

O=C1CC2CCCCC2=C1O (centres undefined)
inactive: EKVX > 100 µM | UACC-62 > 100 µM | Malme-3M > 100 µM | OVCAR-5 > 100 µM | OVCAR-8 > 100 µM | SN12C > 100 µM | NCI-H460 > 100 µM | SK-MEL-5 > 100 µM | A549 > 100 µM | NCI-H522 > 100 µM | SK-MEL-2 > 100 µM | CCRF-CEM > 100 µM | SNB-19 > 100 µM | COLO 205 > 100 µM | HCT-116 > 100 µM

Cc1ccc(S(=O)(=O)N/N=c2\c(C)c(C3=NS(=O)(=O)c4cc(S(N)(=O)=O)c(Cl)cc4N3)oc3c(Cl)cc(Cl)cc23)cc1
inactive: EKVX > 100 µM | UACC-62 > 100 µM | HT-29 49.9 µM | Malme-3M > 100 µM | OVCAR-5 > 100 µM | OVCAR-8 > 100 µM | SN12C > 100 µM | NCI-H460 60.7 µM | SK-MEL-5 > 100 µM | A549 > 100 µM | SK-MEL-2 > 100 µM | CCRF-CEM 32.2 µM | SNB-19 > 100 µM | COLO 205 22.3 µM | HCT-116 65.5 µM

OC12c3ccccc3C1CCCCCCCCCC21OCCCO1 (centres undefined)
inactive: EKVX > 100 µM | UACC-62 > 100 µM | HT-29 > 100 µM | Malme-3M > 100 µM | OVCAR-5 > 100 µM | OVCAR-8 > 100 µM | SN12C > 100 µM | SK-MEL-5 > 100 µM | A549 > 100 µM | NCI-H522 > 100 µM | CCRF-CEM > 100 µM | SNB-19 > 100 µM | COLO 205 > 100 µM | HCT-116 4.06 µM

CC(=O)Nc1ccc(-c2nnc(SCC(=O)Nc3cccc([N+](=O)[O-])c3)o2)cc1
inactive: UACC-62 11.5 µM | HT-29 16.1 µM | Malme-3M 11.6 µM | OVCAR-5 23.9 µM | OVCAR-8 16.2 µM | SN12C 16.1 µM | NCI-H460 14.5 µM | SK-MEL-5 14 µM | A549 17.5 µM | NCI-H522 10.1 µM | SK-MEL-2 18.3 µM | CCRF-CEM 9.1 µM | COLO 205 19 µM | HCT-116 14 µM

CCCCCCCC(=O)OC[C@H](C[As](=O)(O)O)OC(=O)CCCCCCC
inactive: EKVX 21.1 µM | UACC-62 9.29 µM | HT-29 12.2 µM | Malme-3M 12.7 µM | OVCAR-8 13.4 µM | SN12C 10.1 µM | SK-MEL-5 13.6 µM | A549 2.86 µM | NCI-H522 1.42 µM | CCRF-CEM 1.95 µM | SNB-19 14.3 µM | COLO 205 15.1 µM | HCT-116 5.24 µM

N=C(N)SCCc1cn2ccccc2n1
inactive: EKVX > 100 µM | HT-29 > 100 µM | Malme-3M > 100 µM | OVCAR-5 > 100 µM | OVCAR-8 > 100 µM | SN12C > 100 µM | NCI-H460 > 100 µM | SK-MEL-5 6.92 µM | A549 > 100 µM | NCI-H522 > 100 µM | SK-MEL-2 > 100 µM | CCRF-CEM > 100 µM | SNB-19 > 100 µM | COLO 205 > 100 µM | HCT-116 > 100 µM

COc1cc2c(cc1OC)C(N(C)C)C(c1ccccc1)=C2Cl (centres undefined)
inactive: HT-29 19.9 µM | OVCAR-5 34 µM | OVCAR-8 18.9 µM | SN12C 18.7 µM | NCI-H460 19 µM | NCI-H522 10.1 µM | SK-MEL-2 18.7 µM | CCRF-CEM 60.5 µM | SNB-19 37.9 µM | COLO 205 17.9 µM

COC(=O)CCC1(NS(=O)(=O)c2ccc(C)cc2)CCC(C(C)(C)C)CC1 (centres undefined)
inactive: EKVX > 10 µM | UACC-62 11.9 µM | HT-29 13.8 µM | Malme-3M 19.3 µM | OVCAR-5 16.3 µM | OVCAR-8 14.5 µM | SN12C 13.7 µM | NCI-H460 31.2 µM | SK-MEL-5 5.62 µM | A549 13.6 µM | NCI-H522 5.16 µM | SK-MEL-2 17.3 µM | CCRF-CEM 9.89 µM | SNB-19 12.2 µM | COLO 205 13.4 µM | HCT-116 7.74 µM

COC(=O)C1[C@H](c2ccc3c(c2)OCO3)OC(=O)[C@]1(C(=O)OC)C(=O)c1ccc(OC)c(OC)c1 (some centres undefined)
inactive: EKVX > 100 µM | UACC-62 59.7 µM | HT-29 28.1 µM | Malme-3M 84.9 µM | OVCAR-5 56.8 µM | OVCAR-8 42.1 µM | SN12C 48.9 µM | NCI-H460 38.7 µM | SK-MEL-5 56.2 µM | SK-MEL-2 23.4 µM | CCRF-CEM 43.3 µM | COLO 205 42.7 µM

O=[N+]([O-])c1ccccc1S(=O)(=O)c1ccccc1
inactive: EKVX > 100 µM | UACC-62 54.7 µM | HT-29 > 100 µM | Malme-3M > 100 µM | OVCAR-5 > 100 µM | OVCAR-8 > 100 µM | SN12C > 100 µM | NCI-H460 > 100 µM | SK-MEL-5 81.7 µM | A549 > 100 µM | SK-MEL-2 > 100 µM | CCRF-CEM > 100 µM | COLO 205 > 100 µM | HCT-116 > 100 µM

COc1cc(CNc2ccc(C(C)C)cc2)cc(OC)c1OC
inactive: EKVX 51.8 µM | UACC-62 16 µM | HT-29 16.9 µM | Malme-3M 19.5 µM | OVCAR-5 24.8 µM | OVCAR-8 28 µM | SN12C 17.4 µM | NCI-H460 13.4 µM | SK-MEL-5 14.7 µM | A549 13 µM | SK-MEL-2 13 µM | CCRF-CEM 19 µM | SNB-19 29.6 µM | HCT-116 11.5 µM
